Values quoted from earlier work, collected in patent publication US8916516B2, “Treatment of fungal and/or protist infections” (AI2 Limited, priority 2005, dated 2014).

Tested on: bacteria
Conditions: reported by Azuma et al., Peptides 21: 327-330 (2000); cited from earlier work

apoE134-159: Azuma's apolipoprotein E peptide, 26 amino acids in length (RVRLASHLRKLRKRLLRDADDLQKRL; UniProt P02649 152-177, looked up, fragment)
antibacterial activity (in words): greatly reduced antibacterial activity
